Measurements as given in patent publication US4822775A, “Phenyl substituted dipeptide amides” (priority 1986, dated 1989).
Read-outs that look alike come from different tables or passages of the source.

Tests used:
mice = assay: Writhing assay (phenylbenzoquinone-induced writhing); format: in vivo, mouse; conditions: 30 min before phenylbenzoquinone i.p.; for Writhing Mouse Oral: screening dose 10 mg/kg p.o. (intragastric); for Writhing Mouse Subc.: screening dose 10 mg/kg s.c.
Method: Writhing assay. Male Charles River albino mice (CD-1/HAM/1LR) weighing between 20 and 30 grams were used. Thirty minutes after subcutaneous or intragastric administration of the test compound (0.1 mg/10 gram body weight), 0.025% (w/v) phenylbenzoquinone was injected intraperitoneally (0.1 ml/10 gram body weight). Five minutes later, each mouse was placed in a large glass beaker and the number of writhes that occurred in the subsequent ten minutes is counted. A writhe consisted of dorsoflexion of the back, extension of the hindlimbs, and strong contraction of the abdominal musculature. The test compounds was considered to have produced analgesia in a mouse if the number of writhes elicited by phenylbenzoquinone was equal to or less than one-half the median number of writhes recorded for the saline-treated group that day. The results were expressed as the number of mice (out of a possible ten) in which the test compound produced analgesia.

[1] = biological target: opiate receptors isolated from rat brain; format: binding; conditions: for IC50: read-out: Opiate Binding, IC50
opiate activity = conditions: cited from earlier work
rat = conditions: injected directly into the brain of the rat; cited from earlier work
[2] = 1 nM 3H-Naloxone, rat brain receptor membranes, standard screening dose 10^-5 molar (words such as Inactive refer to it)
[3] = 1 nM 3H-Naloxone, rat brain receptor membranes, standard screening dose 10^-5 molar (words such as Inactive refer to it), monohydrochloride

Compound | Writhing Mouse Oral (mice) | Writhing Mouse Subc. (mice) | also measured
Cc1cc(O)cc(C)c1CC(NC(=O)OC(C)(C)C)C(=O)N[C@H](C)C(=O)NCCSc1ccccc1 (mixture of isomers) [Example 108, N-[(1,1-dimethylethoxy)carbonyl]-2,6-dimethyl-DL-tyrosyl-N-[2-(phenythio)ethyl]-D-alaninamide] | Inactive | Active | IC50 [1]: 8.2 nM
2,6-dimetyltyrosyl-N-[3-(2-thienyl)-2E-propenyl]-D-alaninamide, monohydrochloride [Example 52] | Inactive | Active | –
Cc1cc(O)cc(C)c1C[C@H](N)C(=O)N[C@H](C)C(=O)N1CCc2ccccc2C1.Cl (single isomer, unassigned) [Example 35, α-amino-4-hydroxy-2,6-dimethyl-N-[1R-methyl-2-oxo-2-(1,2,3,4-tetrahydro-2-isoquinolinyl)ethyl]benzenepropanamide, monohyrochloride] | Active | Active | IC50 [1, 2]: 14 nM
2,6-dimethyltyrosyl-N-[3-(3-thienyl)-2E-propenyl]-D-alaninamide, monohydrochloride [Example 58] | Inactive | Active | IC50 [1, 2]: 1 nM
COc1ccc(CCCNC(=O)[C@@H](C)N)cc1 [Example 60, αR-amino-N-[3-(4-methoxyphenyl)propyl]propanamide] | Active | Active | IC50 [1, 2]: 36000 nM
2-(2R-amino-1-oxopropyl)-1,2,3,4-tetrahydroisoquinoline, monohydrochloride [Example 32] | Active | Inactive | Opiate Binding, IC50 [1, 2]: Inactive
2,6-dimethyltyrosyl-N-[3-(2-thienyl)propyl]-D-alaninamide, monohydrochloride [Example 46] | – | – | Writhing Mouse Oral (mice; monohydrochloride, 10 mg/kg): Inactive; Writhing Mouse Subc. (mice; monohydrochloride, 10 mg/kg): Inactive; IC50 [1, 3]: 220 nM
Cc1cc(O)cc(C)c1C[C@H](N)C(=O)N[C@H](C)C(=O)NCCSc1ccccc1.Cl [Example 109] | Inactive | Active | –
methionine enkephalin | – | – | activity in bioassays for opiate activity (opiate activity): highly active; analgesic activity (rat): only weak, fleeting analgesic activity
α-amino-4-hydroxy-2,6-dimethyl-N-[1R-methyl-2-oxo-2-(1,2,3,4-tetrahydro-2-isoquinolinyl)ethyl]benzenepropanamide, monohydrochloride [Example 37] | Inactive | Inactive | IC50 [1, 2]: 1400 nM
Cc1cc(O)cc(C)c1C[C@H](N)C(=O)N[C@H](C)C(=O)NCCC(c1ccccc1)c1ccccc1.Cl [Example 73, 2,6-dimethyltyrosyl-N-(3,3-diphenylpropyl)-D-alaninamide, monohydrochloride] | Inactive | Active | IC50 [1, 2]: 0.3 nM
C[C@@H](N)C(=O)NC1Cc2ccccc2C1 [Example 21] | Inactive | Active | Opiate Binding, IC50 [1]: Inactive
2,6-dimethyl-L-tyrosyl-N-[2-(2-thienyl)ethyl]-D-alaninamide, monohydrochloride [Example 39] | Inactive | Inactive | –
C[C@@H](NC(=O)OCc1ccccc1)C(=O)N1CCCc2ccccc21 [Example 25, phenylmethyl [1R-methyl-2-oxo-2-(1,2,3,4-tetrahydro-1-quinolinyl)ethyl]carbamate] | Inactive | Inactive | IC50 [1, 2]: 80000 nM
Cc1cc(O)cc(C)c1C[C@H](N)C(=O)N[C@H](C)C(=O)NCCSc1ccccc1.Cl [Example 109, 2,6-dimethyltyrosyl-N-[2-(2-(phenylthio)ethyl]-D-alaninamide, monohydrochloride] | – | – | IC50 [1]: 0.4 nM
2,6-dimethyltyrosyl-N-(2,3-dihydro-1H-inden-2-yl)-D-alaninamide, monohydrochloride [Example 24] | Inactive | Lethal | IC50 [1, 2]: 860 nM
Cc1cc(O)cc(C)c1CC(NC(=O)OC(C)(C)C)C(=O)N[C@H](C)C(=O)NCCOc1ccccc1 (mixture of isomers) [Example 115, N-[(1,1-dimethylethoxy)carbonyl]O2,6-dimethyl-DL-tyrosyl-N-(2-phenoxyethyl)-D-alaninamide] | Active | Active | IC50 [1]: 8.7 nM
2,6-dimethyltyrosyl-N-(6-methoxy-6-oxohexyl)-D-alaninamide, monohydrochloride [Example 5] | – | Inactive | IC50 [1, 3]: 10000 nM
2,6-dimethyltyrosyl-N-[3-(2-thienyl)propyl]-D-alaninamide, monohydrochloride [Example 47] | – | – | Writhing Mouse Oral (mice; monohydrochloride, 10 mg/kg): Active; Writhing Mouse Subc. (mice; monohydrochloride, 10 mg/kg): Active; IC50 [1, 3]: 2.9 nM
α-amino-4-hydroxy-2,6-dimethyl-N-[1R-methyl-2-oxo-2-(1,2,3,4-tetrahydro-1-quinolinyl)ethyl]benzenepropanamide, monohydrochloride [Example 30] | Inactive | Inactive | –
C[C@@H](N)C(=O)NCCCc1cccs1 [Example 44, 2R-amino-N-[3-(2-thienyl)propyl]propanamide] | Active | Active | Opiate Binding, IC50 [1, 2]: Inactive
2,6-dimethyltyrosyl-N-(6-methoxy-6-oxohexyl)-D-alaninamide, monohydrochloride [Example 7] | Inactive | Inactive | IC50 [1, 3]: 1000 nM
Cc1cc(O)cc(C)c1C[C@H](N)C(=O)N[C@@H](C)C(=O)N1CCCc2ccccc21.Cl (relative stereo) [Example 29, αS-R*-amino-4-hydroxy-2,6-dimethyl-N-[1S*-methyl-2-oxo-2-(1,2,3,4-tetrahydro-1-quinolinyl)ethyl]benzenepropanamide, monohydrochloride] | Inactive | Inactive | IC50 [1]: 4900 nM
C[C@@H](NC(=O)OCc1ccccc1)C(=O)NC1Cc2ccccc2C1 [Example 20, phenylmethyl [2-[(2,3-dihydro-1H-inden-2-yl)amino]-1R-methyl-2-oxoethyl]carbamate] | Inactive | Active | Opiate Binding, IC50 [1, 2]: Inactive
